The record followed here is US9527869B2, “Indolizine derivatives as phoshoinositide 3-kinases inhibitors” (CHIESI FARMACEUTICI S.P.A., priority 2014, dated 2016).

Each structure is given as a SMILES string. Where a name gives a salt, the structure may show the parent alone.

Common to all, as to assay type: biochemical
Assay [1] deals with T1, PI3Kβ (Homo sapiens, UniProt P42338).
T1 construct: purchased Millipore Ltd (Billerica, Mass.)
In words: In vitro determination of the PI3K enzyme inhibitory activity in the cell free assay (ADP-Glo Kinase Assay), PI3Kβ. The note with it: ATP 100 μM, read-out: PI3K beta inhibition. The procedure, abridged: (§1)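 IC50 values came from four-parameter logistic fitting of ADP-Glo luminescence after 60 min kinase reactions at room temperature. ATP (final) was set per isoform: α 50 μM, β 100 μM, γ 30 μM, δ 80 μM. Substrates were phosphatidylinositol and phosphatidylserine (50 μM in 2× Tris pH 7.5 buffer), with human recombinant enzymes.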

Assay [2] deals with T2, PI3Kα (Homo sapiens, UniProt P42336).
T2 construct: purchased Millipore Ltd (Billerica, Mass.)
The experiment in a line: In vitro determination of the PI3K enzyme inhibitory activity in the cell free assay (ADP-Glo Kinase Assay), PI3Kα. The note with it: ATP 50 μM, read-out: PI3K alpha inhibition. The procedure, abridged:
as §1

Assay [3] addresses T3, PI3Kδ (Homo sapiens, UniProt O00329).
T3 construct: purchased Millipore Ltd (Billerica, Mass.)
The experiment in a line: In vitro determination of the PI3K enzyme inhibitory activity in the cell free assay (ADP-Glo Kinase Assay), PI3Kδ. The note with it: ATP 80 μM, read-out: PI3K delta inhibition. The gist of the method: as §1

For assay [4], the target named is T4, PI3Kγ (Homo sapiens, UniProt P48736).
T4 construct: purchased Millipore Ltd (Billerica, Mass.)
The experiment in a line: In vitro determination of the PI3K enzyme inhibitory activity in the cell free assay (ADP-Glo Kinase Assay), PI3Kγ. The note with it: ATP 30 μM, read-out: PI3K gamma inhibition. The gist of the method:
as §1

T4 sequence (P48736 whole entry): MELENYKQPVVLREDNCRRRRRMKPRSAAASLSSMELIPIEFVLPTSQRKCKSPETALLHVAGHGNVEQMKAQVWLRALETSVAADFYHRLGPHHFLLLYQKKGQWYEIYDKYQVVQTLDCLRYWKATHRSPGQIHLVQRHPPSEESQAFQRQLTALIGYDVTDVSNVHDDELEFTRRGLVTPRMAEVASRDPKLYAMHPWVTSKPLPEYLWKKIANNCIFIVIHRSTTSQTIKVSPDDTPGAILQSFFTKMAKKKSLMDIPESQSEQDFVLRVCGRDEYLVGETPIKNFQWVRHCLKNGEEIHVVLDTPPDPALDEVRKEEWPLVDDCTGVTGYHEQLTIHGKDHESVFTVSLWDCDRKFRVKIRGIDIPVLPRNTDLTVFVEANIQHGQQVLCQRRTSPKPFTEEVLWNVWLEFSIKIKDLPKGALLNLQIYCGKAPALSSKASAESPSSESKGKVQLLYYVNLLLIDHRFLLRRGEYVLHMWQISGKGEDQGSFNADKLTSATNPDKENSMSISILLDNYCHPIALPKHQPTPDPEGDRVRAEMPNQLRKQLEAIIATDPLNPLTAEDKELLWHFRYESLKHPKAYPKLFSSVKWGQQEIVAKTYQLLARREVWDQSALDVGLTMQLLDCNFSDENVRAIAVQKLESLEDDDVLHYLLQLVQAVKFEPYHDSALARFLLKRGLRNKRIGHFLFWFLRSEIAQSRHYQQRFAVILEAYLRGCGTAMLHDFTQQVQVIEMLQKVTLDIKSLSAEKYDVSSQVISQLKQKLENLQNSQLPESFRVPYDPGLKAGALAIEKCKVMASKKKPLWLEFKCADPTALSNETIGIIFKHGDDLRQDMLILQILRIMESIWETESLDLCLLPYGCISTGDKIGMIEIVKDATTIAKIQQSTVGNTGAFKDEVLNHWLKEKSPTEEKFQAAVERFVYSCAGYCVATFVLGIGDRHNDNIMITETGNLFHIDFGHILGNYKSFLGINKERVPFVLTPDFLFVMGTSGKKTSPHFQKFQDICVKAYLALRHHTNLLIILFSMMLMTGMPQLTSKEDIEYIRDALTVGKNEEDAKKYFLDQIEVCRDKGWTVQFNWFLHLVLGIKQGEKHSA
T3 sequence (O00329 whole entry): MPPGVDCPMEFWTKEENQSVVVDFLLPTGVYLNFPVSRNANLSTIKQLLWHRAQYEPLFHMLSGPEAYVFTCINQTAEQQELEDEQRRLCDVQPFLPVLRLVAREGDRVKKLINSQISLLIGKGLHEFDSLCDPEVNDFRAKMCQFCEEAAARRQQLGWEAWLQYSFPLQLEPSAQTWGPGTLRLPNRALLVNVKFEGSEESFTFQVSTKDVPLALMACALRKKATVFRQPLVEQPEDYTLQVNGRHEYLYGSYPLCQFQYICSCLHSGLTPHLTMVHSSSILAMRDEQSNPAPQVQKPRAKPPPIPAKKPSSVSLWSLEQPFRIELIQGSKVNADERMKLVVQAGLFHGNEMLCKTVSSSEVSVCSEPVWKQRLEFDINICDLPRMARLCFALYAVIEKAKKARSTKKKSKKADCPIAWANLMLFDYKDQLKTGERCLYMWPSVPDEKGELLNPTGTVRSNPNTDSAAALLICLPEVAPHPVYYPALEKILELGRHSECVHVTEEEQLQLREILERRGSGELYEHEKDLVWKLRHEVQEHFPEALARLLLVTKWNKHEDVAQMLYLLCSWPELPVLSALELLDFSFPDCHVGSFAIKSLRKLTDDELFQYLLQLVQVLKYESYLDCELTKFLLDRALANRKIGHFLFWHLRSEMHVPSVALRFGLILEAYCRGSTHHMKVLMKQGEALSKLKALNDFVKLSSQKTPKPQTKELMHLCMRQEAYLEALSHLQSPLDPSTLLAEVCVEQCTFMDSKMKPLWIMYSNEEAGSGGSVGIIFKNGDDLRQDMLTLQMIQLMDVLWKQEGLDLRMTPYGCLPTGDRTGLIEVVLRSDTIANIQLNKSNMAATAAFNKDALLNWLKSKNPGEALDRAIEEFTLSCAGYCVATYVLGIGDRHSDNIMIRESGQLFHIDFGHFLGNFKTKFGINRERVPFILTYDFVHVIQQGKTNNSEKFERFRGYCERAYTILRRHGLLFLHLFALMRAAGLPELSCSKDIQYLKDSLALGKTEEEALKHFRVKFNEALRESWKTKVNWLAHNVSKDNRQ
T3 sequence (P27986 whole entry partner): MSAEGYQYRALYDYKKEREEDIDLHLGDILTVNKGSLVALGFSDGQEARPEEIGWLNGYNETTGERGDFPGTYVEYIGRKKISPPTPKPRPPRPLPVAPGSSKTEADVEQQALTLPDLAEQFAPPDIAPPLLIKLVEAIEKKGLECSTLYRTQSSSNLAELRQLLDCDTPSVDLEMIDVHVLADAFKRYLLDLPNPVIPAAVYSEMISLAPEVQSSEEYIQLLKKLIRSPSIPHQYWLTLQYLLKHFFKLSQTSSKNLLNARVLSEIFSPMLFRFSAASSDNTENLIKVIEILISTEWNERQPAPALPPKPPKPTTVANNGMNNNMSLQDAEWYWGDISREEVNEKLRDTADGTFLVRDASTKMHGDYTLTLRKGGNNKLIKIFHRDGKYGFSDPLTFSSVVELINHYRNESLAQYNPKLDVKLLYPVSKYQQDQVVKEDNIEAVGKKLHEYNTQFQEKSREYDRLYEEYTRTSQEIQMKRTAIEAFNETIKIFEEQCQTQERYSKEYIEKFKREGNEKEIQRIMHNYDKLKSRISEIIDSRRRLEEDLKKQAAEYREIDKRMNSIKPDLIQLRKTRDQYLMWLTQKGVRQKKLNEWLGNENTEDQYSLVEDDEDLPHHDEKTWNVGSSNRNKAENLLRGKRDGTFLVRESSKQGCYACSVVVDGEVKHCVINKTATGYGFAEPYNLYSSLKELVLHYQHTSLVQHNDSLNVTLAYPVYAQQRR
T2 sequence (P42336 whole entry): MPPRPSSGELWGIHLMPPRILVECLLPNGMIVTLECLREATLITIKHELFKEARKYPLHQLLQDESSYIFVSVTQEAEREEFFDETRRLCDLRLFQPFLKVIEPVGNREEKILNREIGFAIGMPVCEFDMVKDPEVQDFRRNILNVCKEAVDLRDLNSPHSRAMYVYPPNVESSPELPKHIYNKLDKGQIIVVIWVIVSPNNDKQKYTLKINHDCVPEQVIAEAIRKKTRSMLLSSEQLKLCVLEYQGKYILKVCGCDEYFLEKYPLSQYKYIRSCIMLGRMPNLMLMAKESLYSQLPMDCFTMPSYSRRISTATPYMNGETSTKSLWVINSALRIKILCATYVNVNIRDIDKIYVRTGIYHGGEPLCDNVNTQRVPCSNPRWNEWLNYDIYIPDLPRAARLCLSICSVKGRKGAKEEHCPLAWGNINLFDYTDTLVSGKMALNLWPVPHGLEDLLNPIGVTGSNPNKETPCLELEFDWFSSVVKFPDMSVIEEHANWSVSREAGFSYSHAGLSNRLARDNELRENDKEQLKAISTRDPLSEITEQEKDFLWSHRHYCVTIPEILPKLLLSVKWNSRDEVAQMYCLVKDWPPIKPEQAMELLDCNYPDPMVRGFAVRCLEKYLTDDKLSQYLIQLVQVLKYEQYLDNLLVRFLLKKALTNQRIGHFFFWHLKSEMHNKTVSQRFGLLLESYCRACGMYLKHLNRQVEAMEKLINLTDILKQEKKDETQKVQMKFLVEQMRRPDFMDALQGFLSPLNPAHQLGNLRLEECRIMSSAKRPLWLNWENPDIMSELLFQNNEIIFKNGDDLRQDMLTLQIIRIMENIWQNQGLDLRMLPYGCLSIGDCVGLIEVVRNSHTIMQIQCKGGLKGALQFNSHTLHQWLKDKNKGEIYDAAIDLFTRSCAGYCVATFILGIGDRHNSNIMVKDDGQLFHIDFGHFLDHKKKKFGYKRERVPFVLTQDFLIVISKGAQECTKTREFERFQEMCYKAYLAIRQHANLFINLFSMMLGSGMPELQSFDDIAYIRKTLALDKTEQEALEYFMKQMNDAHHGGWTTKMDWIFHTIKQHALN
T2 sequence (P27986 whole entry partner): as the sequence (P27986 whole entry partner) above
T1 sequence (P42338 whole entry): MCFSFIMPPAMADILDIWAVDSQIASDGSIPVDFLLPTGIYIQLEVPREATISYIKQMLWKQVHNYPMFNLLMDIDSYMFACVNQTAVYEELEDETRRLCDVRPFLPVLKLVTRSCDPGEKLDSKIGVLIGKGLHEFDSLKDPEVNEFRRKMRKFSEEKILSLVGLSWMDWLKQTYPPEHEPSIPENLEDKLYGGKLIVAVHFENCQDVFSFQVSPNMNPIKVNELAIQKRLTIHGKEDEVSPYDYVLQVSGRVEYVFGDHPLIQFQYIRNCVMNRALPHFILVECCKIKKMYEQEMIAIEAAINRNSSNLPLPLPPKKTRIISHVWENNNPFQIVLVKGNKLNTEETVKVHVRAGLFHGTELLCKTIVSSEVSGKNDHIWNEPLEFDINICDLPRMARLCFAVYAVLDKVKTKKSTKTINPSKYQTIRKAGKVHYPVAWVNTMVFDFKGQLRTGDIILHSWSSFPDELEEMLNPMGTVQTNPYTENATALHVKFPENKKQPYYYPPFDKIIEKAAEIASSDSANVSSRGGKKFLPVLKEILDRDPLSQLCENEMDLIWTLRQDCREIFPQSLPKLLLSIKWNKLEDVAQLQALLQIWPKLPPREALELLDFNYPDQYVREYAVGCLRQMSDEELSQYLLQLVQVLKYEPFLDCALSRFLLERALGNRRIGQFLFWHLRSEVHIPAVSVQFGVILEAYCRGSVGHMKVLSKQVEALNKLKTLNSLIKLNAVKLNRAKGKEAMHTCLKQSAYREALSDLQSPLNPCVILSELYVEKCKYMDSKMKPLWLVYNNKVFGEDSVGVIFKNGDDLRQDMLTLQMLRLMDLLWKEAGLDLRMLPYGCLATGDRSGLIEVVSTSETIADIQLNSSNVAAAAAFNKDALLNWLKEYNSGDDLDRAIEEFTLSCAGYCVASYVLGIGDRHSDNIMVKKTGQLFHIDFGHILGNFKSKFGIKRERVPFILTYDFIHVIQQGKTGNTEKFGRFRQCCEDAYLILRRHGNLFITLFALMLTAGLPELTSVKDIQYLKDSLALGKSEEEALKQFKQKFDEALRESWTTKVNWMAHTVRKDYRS
T1 sequence (P27986 whole entry partner): as the sequence (P27986 whole entry partner) above

As to `Cc1cccc2cc(C(C)Nc3ncnc(N)c3C#N)c(-c3ccccn3)n12` (centres unmarked) [Example 40, 4-amino-6-({1-[5-methyl-3-(pyridin-2-yl)indolizin-2-yl]ethyl}amino)pyrimidine-5-carbonitrile], the IC50 in assay [1] is greater than 1000 nM; in assay [2] it was greater than 1000 nM; in assay [3], less than 10 nM; in assay [4], greater than 1000 nM.
With `Cc1cccn2c(-c3ccccn3)c(C(C)Nc3ncnc(N)c3C#N)cc12` (centres unmarked) [Example 41, 4-amino-6-({1-[8-methyl-3-(pyridin-2-yl)indolizin-2-yl]ethyl}amino)pyrimidine-5-carbonitrile], the IC50 in assay [1] is greater than 1000 nM; in assay [2] it was greater than 1000 nM; in assay [3], 10 to 1000 nM; in assay [4], greater than 1000 nM.
As to `CC(Nc1ncnc(N)c1C#N)c1cc2ccccn2c1C1=CCOCC1` (centres unmarked) [Example 42, 4-amino-6-({1-[3-(3,6-dihydro-2H-pyran-4-yl)indolizin-2-yl]ethyl}amino)pyrimidine-5-carbonitrile], the IC50 in assay [1] was 10 to 1000 nM; in assay [2], greater than 1000 nM; in assay [3], 10 to 1000 nM; in assay [4], greater than 1000 nM.
As for `CCCC#Cc1c(C(C)Nc2ncnc(N)c2C#N)cc2ccccn12` (centres unmarked) [Example 43, 4-amino-6-({1-[3-(pent-1-yn-1-yl)indolizin-2-yl]ethyl}amino)pyrimidine-5-carbonitrile], the IC50 is 10 to 1000 nM in assay [1], greater than 1000 nM in assay [2], 10 to 1000 nM in assay [3] and greater than 1000 nM in assay [4].
As for `CCC(Nc1ncnc(N)c1C#N)c1cc2ccccn2c1-c1ccccn1` (centres unmarked) [Example 44, 4-amino-6-({1-[3-(pyridin-2-yl)indolizin-2-yl]propyl}amino)pyrimidine-5-carbonitrile], the IC50 was greater than 1000 nM in assay [1], greater than 1000 nM in assay [2], 10 to 1000 nM in assay [3] and 10 to 1000 nM in assay [4].
For `CC(Nc1ncnc(N)c1C#N)c1cc2ccccn2c1C1=CCNCC1` (centres unmarked) [Example 45, 4-amino-6-({1-[3-(1,2,3,6-tetrahydropyridin-4-yl)indolizin-2-yl]ethyl}amino)pyrimidine-5-carbonitrile], the IC50 is 10 to 1000 nM in assay [1], greater than 1000 nM in assay [2], 10 to 1000 nM in assay [3] and greater than 1000 nM in assay [4].
Consider `CC(Nc1ncnc(N)c1C#N)c1cc2ccccn2c1C#CCO` (centres unmarked) [Example 46, 4-amino-6-({1-[3-(3-hydroxyprop-1-yn-1-yl)indolizin-2-yl]ethyl}amino)pyrimidine-5-carbonitrile], for which the IC50 in assay [1] is 10 to 1000 nM; in assay [2] it was greater than 1000 nM; in assay [3], 10 to 1000 nM; in assay [4], 10 to 1000 nM.
In the case of `CC(Nc1ncnc(N)c1C=O)c1cc2ccccn2c1-c1ccccn1` (centres unmarked) [Example 47, 4-amino-6-({1-[3-(pyridin-2-yl)indolizin-2-yl]ethyl}amino)pyrimidine-5-carbaldehyde], the IC50 in assay [1] was 10 to 1000 nM; in assay [2], greater than 1000 nM; in assay [3] it was 10 to 1000 nM; in assay [4] it was greater than 1000 nM.
For `CC(Nc1ncnc(N)c1Br)c1cc2ccccn2c1-c1ccccn1` (centres unmarked) [Example 48, 5-bromo-4-N-{1-[3-(pyridin-2-yl)indolizin-2-yl]ethyl}pyrimidine-4,6-diamine], the IC50 in assay [1] was greater than 1000 nM; in assay [2], greater than 1000 nM; in assay [3], 10 to 1000 nM; in assay [4], greater than 1000 nM.
With `CC(Nc1ncnc(N)c1C(F)(F)F)c1cc2ccccn2c1-c1ccccn1` (centres unmarked) [Example 49, 4-N-{1-[3-(pyridin-2-yl)indolizin-2-yl]ethyl}-5-(trifluoromethyl)pyrimidine-4,6-diamine], the IC50 in assay [1] was greater than 1000 nM; in assay [2], greater than 1000 nM; in assay [3], 10 to 1000 nM; in assay [4], greater than 1000 nM.
On to `Cc1c(N)ncnc1NC(C)c1cc2ccccn2c1-c1ccccn1` (centres unmarked) [Example 50, 5-methyl-4-N-{1-[3-(pyridin-2-yl)indolizin-2-yl]ethyl}pyrimidine-4,6-diamine], for which the IC50 is greater than 1000 nM in assay [1], greater than 1000 nM in assay [2], 10 to 1000 nM in assay [3] and greater than 1000 nM in assay [4].
For the molecule `CNC(=O)c1c(N)ncnc1NC(C)c1cc2ccccn2c1-c1ccccn1` (centres unmarked) [Example 51, 4-amino-N-methyl-6-({1-[3-(pyridin-2-yl)indolizin-2-yl]ethyl}amino)pyrimidine-5-carboxamide], the IC50 in assay [1] is greater than 1000 nM; in assay [2] it was greater than 1000 nM; in assay [3], 10 to 1000 nM; in assay [4] it was greater than 1000 nM.
For the molecule `CC(Nc1ncnc(N)c1C(N)=O)c1cc2ccccn2c1-c1ccccn1` (centres unmarked) [Example 52, 4-amino-6-({1-[3-(pyridin-2-yl)indolizin-2-yl]ethyl}amino)pyrimidine-5-carboxamide], the IC50 in assay [1] was greater than 1000 nM; in assay [2] it was greater than 1000 nM; in assay [3], 10 to 1000 nM; in assay [4] it was greater than 1000 nM.
On to `CC(Nc1ncnc(N)c1C(=O)O)c1cc2ccccn2c1-c1ccccn1` (centres unmarked) [Example 53, 4-amino-6-({1-[3-(pyridin-2-yl)indolizin-2-yl]ethyl}amino)pyrimidine-5-carboxylic acid formate], for which the IC50 in assay [1], in assay [2], in assay [3] and in assay [4] was greater than 1000 nM each time.
For the molecule `CC(NC(=O)c1nccnc1N)c1cc2ccccn2c1-c1ccccn1` (centres unmarked) [Example 54, 3-amino-N-{1-[3-(pyridin-2-yl)indolizin-2-yl]ethyl}pyrazine-2-carboxamide], the IC50 in assay [1], in assay [2], in assay [3] and in assay [4] was greater than 1000 nM each time.
For the molecule `Nc1nccnc1C(=O)NCc1cn2ccccc2c1-c1ccccn1` [Example 55, 3-amino-N-{[1-(pyridin-2-yl)indolizin-2-yl]methyl}pyrazine-2-carboxamide], the IC50 in assay [1], in assay [2], in assay [3] and in assay [4] was greater than 1000 nM throughout.
In the case of `CC(Nc1ncnc(N)c1CO)c1cc2ccccn2c1-c1ccccn1` (centres unmarked) [Example 56, [4-amino-6-({1-[3-(pyridin-2-yl)indolizin-2-yl]ethyl}amino)pyrimidin-5-yl]methanol], the IC50 in assay [1], in assay [2], in assay [3] and in assay [4] was greater than 1000 nM each time.
Regarding `CC(Nc1ncnc(N)c1CN1CCOCC1)c1cc2ccccn2c1-c1ccccn1` (centres unmarked) [Example 57, 5-(morpholin-4-ylmethyl)-4-N-{1-[3-(pyridin-2-yl)indolizin-2-yl]ethyl}pyrimidine-4,6-diamine], the IC50 in assay [1], in assay [2], in assay [3] and in assay [4] was greater than 1000 nM in each case.
For the molecule `CC(Nc1ncnc(N)c1/C=N/O)c1cc2ccccn2c1-c1ccccn1` (centres unmarked) [Example 58, 5-[(1E)-(hydroxyimino)methyl]-4-N-{1-[3-(pyridin-2-yl)indolizin-2-yl]ethyl}pyrimidine-4,6-diamine], the IC50 in assay [1] was 10 to 1000 nM; in assay [2], greater than 1000 nM; in assay [3] it was less than 10 nM; in assay [4] it was greater than 1000 nM.
In the case of `CC(Nc1ncnc(N)c1C#CCO)c1cc2ccccn2c1-c1ccccn1` (centres unmarked) [Example 59, 3-[4-amino-6-({1-[3-(pyridin-2-yl)indolizin-2-yl]ethyl}amino)pyrimidin-5-yl]prop-2-yn-1-ol], the IC50 in assay [1] was greater than 1000 nM; in assay [2], greater than 1000 nM; in assay [3] it was 10 to 1000 nM; in assay [4], greater than 1000 nM.
